In patent US20200030278A1, “PHARMACEUTICAL COMPOSITIONS OF METAP-2 INHIBITORS” (Zafgen, Inc., priority 2017, published 2020):
Converted amounts (≈) assume the structure as drawn. Read-outs that look alike come from different tables or passages of the source.

Tests used:
[1] = Protein binding in human plasma (dialysis); assay type: in vitro ADME; conditions: Human Plasma, 120 nM; read-out: % Bound (Mean) (converted)
[2] = logD7.4 (physicochemical properties); conditions: pH 7.4
[3] = pKa (physicochemical properties)
[4] = Protein binding in dog plasma (dialysis); assay type: in vitro ADME; conditions: Dog Plasma, read-out: % Bound (Mean) (converted)
[5] = clinical trials in patients with obesity, PWS, or type 2 diabetes; cited from earlier work
[6] = Hepatocyte incubation, metabolic profile, human; assay type: in vitro ADME
[7] = Toxicology study in the rat, s.c. Q3D for 28 days; assay type: in vivo, Sprague Dawley rats; conditions: for NOAEL at 28 days / Cmax / AUC(0-t): Sprague Dawley, rat, in vivo, sc; for NOAEL at 28 days / Mortality/early euthanasia: s.c. Q3D, 4 weeks; for AUC(0-t): read-out: AUC0-t at NOAEL; for Mortality/early euthanasia: rats
Method: Male and female Sprague Dawley rats 9-10 weeks of age (Envigo RMS, Inc., Indianapolis, Ind. or Orient Bio Inc., Gyeonggi-do, South Korea) were individually housed at the testing facility. […] Animals were allocated to treatment groups based on body weight, and body weight and food consumption were recorded weekly. […] At necropsy, macroscopic pathologic findings were recorded, sperm motility and morphology were determined, selected organs were weighed, and selected tissues were collected for microscopic examination.

[8] = Solubility (pH 7); assay type: physicochemical; conditions: pH 7, aqueous buffer
[9] = Hepatocyte incubation, metabolic profile, rat; assay type: in vitro ADME
[10] = Hepatocyte incubation, metabolic profile, dog; assay type: in vitro ADME
[11] = Pharmacokinetics after subcutaneous administration in humans; assay type: in vivo, Human; conditions: Human, SC, 2 mg
From the text: (§1) Assessment of differences in pharmacokinetics following subcutaneous administration reflect both differences in the pharmacokinetic properties of the compounds and differences in pharmaceutical factors that affect absorption of the formulations from the injection sites.

[12] = Duration of plasma exposure after subcutaneous dosing, summary over species; assay type: in vivo, rat, dog, rabbit, human
[13] = Pharmacokinetics after subcutaneous administration in rats; assay type: in vivo; conditions: plasma; Rat, SC, 6 mg/kg
Method: (§2) Animal experiments were performed in accordance with the Guide for the Care and Use of Laboratory Animals as adopted and promulgated by the U.S. National Institutes of Health or local equivalent and were approved by the Institution's Animal Care and Use Committee or local equivalent. Unless described otherwise, animals (mouse, rat, and dog studies) were maintained under standard conditions (12-hour light/dark cycle and approximately 21±4° C. and 55±15% relative humidity), and food (Rodent pellet chow [Research Diets, Brunswick N.J., or similar] or canine pellet [Certified Dog Diet 2021C, Harlan Teklad Diets, Madison, Wis.] or canned [i.e., Cesar® Mars Petcare, Victoria, Australia]) and water were available ad libitum. Unless described otherwise, drug formulations were administered s.c. daily (efficacy studies) or every 3 days (Q3D; safety studies).
as §1

[14] = Pharmacokinetics after intravenous administration in dogs; conditions: in vivo, Dog, IV Bolus, 0.142 mg/kg
Method: as §2

[15] = Pharmacokinetics after intravenous administration in rats; conditions: in vivo, Rat, IV Bolus, 3 mg/kg
Method: as §2

[16] = Pharmacokinetic study in dogs, single s.c. injection (Example 3); conditions: both, beagle, dog, plasma, sc, 0.6 mg/kg
Method: Male and female beagle dogs of 9 to 11 months of age for PK characterization were individually housed at the testing facility Approximately 325 g of pelleted food was provided daily. […] Animals were observed twice daily for signs of ill health, morbidity, mortality, injury, and viability, and detailed clinical observations were conducted daily (including urine/fecal examination and hands-on examination). Food was weighed daily, and body weights were recorded at least weekly.
Samples were collected in tubes containing lithium heparin and processed for plasma by centrifugation (10 minutes at 3000 rpm). Supernatant was removed and stored frozen (−70° C.) until processed (BASi, West Lafayette, Ind.). Plasma drug concentration data were used to calculate PK parameters for individual concentration data using noncompartmental PK methods in Watson™ version 7.3.0.01 (Thermo Fisher Scientific, Inc., Waltham, Mass.).

[17] = Pharmacokinetics after subcutaneous administration in dogs; assay type: in vivo; conditions: beagle, plasma, Dog, SC, 0.6 mg/kg
Method: as §2, §1

[18] = Protein binding in rat plasma (dialysis); assay type: in vitro ADME; conditions: Rat Plasma, read-out: % Bound (Mean) (converted)
[19] = Pharmacokinetics after subcutaneous administration in rabbits; assay type: in vivo, Rabbit
From the text: as §1

[20] = Protein binding in mouse plasma (dialysis); assay type: in vitro ADME; conditions: read-out: % Bound (Mean) (converted)
[21] = female, 2 mg/kg, Day 1, female rats, NOAEL 2 mg/kg
[22] = female, 2 mg/kg, Day 31, female rats, NOAEL 2 mg/kg
[23] = male, 0.6 mg/kg, Day 1, male rats, NOAEL 0.6 mg/kg
[24] = male, 0.6 mg/kg, Day 31, male rats, NOAEL 0.6 mg/kg

With `CO[C@@H]1[C@H](OC(=O)/C=C/c2ccc(OCCN(C)C)cc2)CC[C@]2(CO2)[C@H]1[C@@]1(C)O[C@@H]1CC=C(C)C` [beloranib, reference compound] the fraction unbound at 120 nM [1] was 0.0544, the logD7.4 [2] was 2.72 and the pKa [3] was 9.4. The fraction unbound at 480 nM ([4]; 480 nM) was 0.045, the fraction unbound at 1000 nM ([4]; 1000 nM) was 0.059 and the “adverse events (AEs)” value [5] was “venous thromboembolism”. The “metabolic profile / predominant pathway in hepatocytes” value [6] was “glutathione (GSH) conjugation pathways being predominant”, the NOAEL at 28 days ([7]; female rats, read-out: NOAEL (F)) was 2 mg/kg and the NOAEL at 28 days ([7]; male rats, read-out: NOAEL) was 0.6 mg/kg. The Cmax [7, 21] was 28.5 ng/mL, the AUC(0-t) [7, 21] was 96.9 ng·h/mL and the Cmax [7, 22] was 19.2 ng/mL. The AUC(0-t) [7, 22] was 56.7 ng·h/mL, the Cmax [7, 23] was 19.2 ng/mL and the AUC(0-t) [7, 23] was 36.8 ng·h/mL. For the same molecule, the Cmax [7, 24] was 8.17 ng/mL, the AUC(0-t) [7, 24] was 29 ng·h/mL and the Mortality/early euthanasia [7] was “mortality was noted by Days 16-24”. For the same molecule, the Mortality/early euthanasia ([7]; listed as Beloranib) was 4/15 males in the 6 mg/kg dose, the solubility [8] was 300 µg/mL (≈ 600 µM) and the “metabolic profile / predominant pathway in hepatocytes” value [9] was “glutathione (GSH) conjugation pathways being predominant”. The “metabolic profile / predominant pathway in hepatocytes” value [10] was “glutathione (GSH) conjugation pathways being predominant”, the kel [11] was 0.0885 ± 0.0266 h⁻¹ and the AUC(0-inf) ([11]; plasma) was 5.44 ± 1.81 ng·h/mL. For the same molecule, the half-life ([11]; plasma) was 8.44 ± 2.49 h, the Cmax ([11]; plasma, read-out: Cmax) was 1 ± 1.1 ng/mL and the Tmax ([11]; plasma, read-out: Tmax) was 1.58 ± 1.28 h. For the same molecule, the “interval between doses with plasma concentrations at background / minimal exposure” value ([12]; dosing once every 3 days in animals and twice a week in humans) was “approximately 48 hours”, the “plasma concentration at 24 hours after dosing” value ([12]; subcutaneous, rat, dog, and human) was “quantifiable” and the AUC(0-t) [13] was 412 ng·h/mL. The Cmax [13] was 270 ng/mL, the Tmax [13] was 0.5 h and the half-life [13] was 1.8 h. The clearance [14] was 33.3 mL/min/kg, the half-life [14] was 2.9 ± 0.29 h and the Vd ([14]; read-out: Vdss) was 5.07 ± 0.23 L/kg. For the same molecule, the clearance [15] was 113 mL/min/kg, the half-life [15] was 1.05 ± 0.23 h and the Vd ([15]; read-out: Vdss) was 5.08 ± 0.29 L/kg. It also gave a half-life [16] of 9.3 h, an AUC(0-t) [17] of 182 ± 73 ng·h/mL and a Cmax [17] of 16.6 ± 12.3 ng/mL. It also gave a Tmax [17] of 3.5 ± 1 h, a half-life ([17]; N = 1) of 7.84 h and a fraction unbound at 60 nM ([18]; 60 nM) of 0.0285. The fraction unbound at 120 nM ([18]; 120 nM) was 0.055, the fraction unbound at 240 nM ([18]; 240 nM) was 0.0415 and the fraction unbound at 480 nM ([18]; 480 nM) was 0.0326. For the same molecule, the fraction unbound at 1000 nM ([18]; 1000 nM) was 0.0434, the fraction unbound ([18]; All concentrations) was 0.0402 and the AUC(0-t) ([19]; plasma, Rabbit, SC, 1 mg/kg) was 222 ± 9 ng·h/mL. It also gave a Cmax ([19]; plasma, Rabbit, SC, 1 mg/kg) of 52 ± 4.1 ng/mL, a Tmax ([19]; plasma, Rabbit, SC, 1 mg/kg) of 1.7 ± 0.6 h and a half-life ([19]; plasma, Rabbit, SC, 1 mg/kg) of 1.7 ± 0.3 h. For the same molecule, the “plasma concentration at 8 hours after dosing” value ([19]; rabbit, subcutaneous) was “still quantifiable”, the fraction unbound at 60 nM ([20]; 60 nM) was 0.0181 and the fraction unbound at 120 nM ([20]; 120 nM) was 0.0191. For the same molecule, the fraction unbound at 240 nM ([20]; 240 nM) was 0.0259, the fraction unbound at 480 nM ([20]; 480 nM) was 0.0222 and the fraction unbound at 1000 nM ([20]; 1000 nM) was 0.0212. For the same molecule, the fraction unbound ([20]; All concentrations) was 0.0213.
